The test system of one data set is RBCs from rat. Kind of data set: Hemolysis assay. The data set is classed as cell-based. As to conditions: 37° C., 24 h, Triton X as positive control. As for the experimental part:
7×10^7 RBCs from rat were separated by centrifugation of whole blood. The supernatant containing plasma and platelets were removed. The pellets were washed by PBS until the supernatant was clear. Different formulations were diluted to a required concentration and added to the tubes containing 1 mL diluted RBCs. The cell suspension was mixed gently and incubated at 37° C. for 24 h. Triton X-100 was served as a positive control. Hemoglobin released from RBCs was measured spectrophotometrically. The concentration of the formed product was measured at 540 nm using an ELISA reader (TECAN, Mannedorf, Switzerland) to qualify the toxicity of liposomes to RBCs.

A short description of data set [1]: Biosafety evaluation by serum biochemical tests. As to conditions: tumor-bearing mice, 48 h after last treatment. The class given is in vivo.
Experimental: Tumor-bearing mice were treated as described above. Blood samples were taken from the orbital sinus of mice at 48 h after the final injection. The harvested samples were put at 37° C. to induce the clotting reaction and centrifuged for 15 min. The resultant serum samples were stored at −80° C. until further analysis. The functions of liver, kidney and heart were examined by detecting the serum levels of glutamate pyruvate transaminase (GPT), creatinine (CRE), and creatine kinase-MB (CK-MB) using the corresponding activity assay kits (Fujifilm, Tokyo, Japan) according to the manufacturer's instruction using a clinical dry chemistry analyzer (Fuji Dri-Chem 7000V, Fujifilm Corporation, Tokyo, Japan).
Data shown indicate the mean±SD of four experiments.

For the compound Triton X-100, the Hemolysis in the data set on RBCs from rat is recorded as 100%.
Consider `O=C1[O][Pt]2([NH][C@@H]3CCCC[C@H]3[NH]2)[O]C1=O` [Oxa, oxaliplatin], for which the “Serum levels of GPT or GOT, CRE, and CK-MB or LDH” value in data set [1] was “remarkably escalated”.

The values are drawn from patent US11690803B2, “Tumor pH-shiftable coating and the nucleus-directed nanoparticles facilitate the targeted chemotherapy and gene therapy against multiple cancers and use thereof” (National Yang Ming Chiao Tung University, priority 2019, dated 2023).
